In patent publication US9428507B2, “Compounds for the treatment of malaria” (The Broad Institute, Inc., priority 2013, dated 2016):

test system: Dd2 strain of P. falciparum; assay: Activity against the Dd2 strain of P. falciparum (SYBR Green I, 72-h incubation); type: cell-based; settings: Plasmodium falciparum, DD2, 72 h, read-out: EC^50 Dd2
In short: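 Dd2 parasites at 1% parasitemia and 1.0% hematocrit in albumax II screening medium, 72 h at 37° C under 93% N2/4% CO2/3% O2; final DMSO 0.125%. Growth read as SYBR Green I fluorescence (485/530 nm) after lysis and 24 h staining. 20 μM mefloquine defined background, DMSO baseline.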

First: COc1ccc2c3c([nH]c2c1)[C@H](CO)NCC31CCN(C(=O)Nc2ccccc2F)CC1 [Compound 26, (R)-N-(2-fluorophenyl)-1′-(hydroxymethyl)-7′-methoxy-1′,2′,3′,9′-tetrahydrospiro [piperidine-4,4′-pyrido[3,4-b]indole]-1-carboxamide]
Second: CCCN1CC2(CCN(C(=O)Nc3ccccc3F)CC2)c2c([nH]c3cc(OC)ccc23)[C@@H]1CO [Compound 49, (R)-N-(2-fluorophenyl)-1′-(hydroxymethyl)-7′-methoxy-2′-propyl-1′,2′,3′,9′-tetrahydrospiro[piperidine-4,4′-pyrido[3,4-b]indole]-1-carboxamide]
The EC50 of the first is lower: 1330 nM for the first, 2390 to 2920 nM for the second.

`COc1cc2[nH]c3c(c2cc1OC)C1(CCN(C(=O)Nc2ccccc2F)CC1)CN(C(C)=O)[C@H]3CO` [Compound 139, (R)-2′-acetyl-N-(2-fluorophenyl)-1′-(hydroxymethyl)-6′,7′-d imethoxy-1′,2′,3′,9′-tetrahydrospiro [piperidine-4,4′-pyrido[3,4-b]indole]-1-carboxamide] and `CC(=O)Oc1ccc2c3c([nH]c2c1)[C@H](CO)N(C(C)=O)CC31CCN(C(=O)Nc2ccccc2F)CC1` [Compound 138, (R)-1-(1-(benzo[d]thiazol-2-yl)-1′-(hydroxymethyl)-7′-methoxyspiro [piperidine-4,4′-py(R)-2′-acetyl-1-((2-fluorophenyl)carbamoyl)-1′-(hydroxymethyl)-1′,2′,3′,9′-tetrahydrospiro [piperidine-4,4′-pyrido[3,4-b]indol]-7′-ylacetaterido[3,4-b]indol]-2′(1′H,3′H,9′H)-yl)ethanone] are within 1.5-fold of each other in EC50: 5760 nM for the first, 4500 nM for the second.

First: COc1ccc2c3c([nH]c2c1)[C@H](CO)N(Cc1ccccn1)CC31CCN(Cc2cccc(F)c2)CC1 [Compound 122]
Second: COc1ccc2c3c([nH]c2c1)[C@H](CO)N(Cc1ccc(Cl)cc1)CC31CCN(Cc2nccs2)CC1 [Compound 87, (R)-(2′-(4-chlorobenzyl)-7′-methoxy-1-(thiazol-2-ylmethyl)-1′,2′,3′,9′-tetrahydrospiro [piperidine-4,4′-pyrido[3,4-b]indol]-1′-yl)methanol]
The EC50 of the first is 5.4-fold higher: 421 nM for the first, 78 nM for the second. The second is the more potent here.

`COc1ccc2c3c([nH]c2c1)[C@@H](CO)N(Cc1ccncc1)CC31CCN(Cc2ccc(-c3ccccn3)cc2)CC1` [Compound 133, (S)-(7′-methoxy-1-(4-(pyridin-2-yl)benzy1)-2′-(pyridin-4-ylmethyl)-1′,2′,3′,9′-tetrahydrospiro [piperidine-4,4′-pyrido[3,4-b]indol]-1′-yl)methanol] and `COc1ccc2c3c(n(C)c2c1)[C@@H](CO)NCC31CCN(Cc2ccc(-c3ccccn3)cc2)CC1` [Compound 130, (S)-(7′-methoxy-9′-methyl-1-(4-(pyridin-2-yl)benzyl)-1′,2′,3′,9′-tetrahydrospiro[piperidine-4,4′-pyrido[3,4-b]indol]-1′-yl)methanol] are within 1.5-fold of each other in EC50: 613 nM for the first, 439 nM for the second.

`CCN1CC2(CCN(C(=O)OC(C)(C)C)CC2)c2c([nH]c3cc(OC)ccc23)[C@@H]1CO[Si](C)(C)C(C)(C)C` [Compound 56, (R)-tert-butyl 1′-(((tert-butyldimethylsilyl)oxy)methyl)-2′-ethyl-7′-methoxy-1′,2′,3′,9′-tetrahydrospiro [piperidine-4,4′-pyrido[3,4-b]indole]-1-carboxylate] and `COCOC[C@H]1c2[nH]c3cc(OC)ccc3c2C2(CCN(C(=O)Nc3ccccc3F)CC2)CN1C(C)=O` [Compound 67, (R)-2′-acetyl-N-(2-fluorophenyl)-7′-methoxy-1′-((methoxymethoxy)methyl)-1′,2′,3′,9′-tetrahydrospiro [piperidine-4,4′-pyrido[3,4-b]indole]-1-carboxamide] cannot be ordered by EC50: 1040 to 8770 nM for the first, 3040 nM for the second.

First: COc1ccc2c3c([nH]c2c1)[C@H](CO)N(C(=O)C1CCCCC1)CC31CCN(Cc2nccs2)CC1 [Compound 103, (R)-cyclohexyl (1′-(hydroxymethyl)-7′-methoxy-1-(thiazol-2-ylmethyl)spiro[piperidine-4,4′-pyrido[3,4-b]indol]-2′(1′H,3′H,9′H)-yl)methanone]
Second: COc1ccc2c3c([nH]c2c1)[C@H](CO)N(C(=O)CN(C)C)CC31CCN(CC2CCCCC2)CC1 [Compound 89, (R)-1-(1-(cyclohexylmethyl)-1′-(hydroxymethyl)-7′-methoxyspiro [piperidine-4,4′-pyrido[3,4-b]indol]-2′(1′ H,3′H,9′H)-yl)-2-(dimethylamino)ethanone]
The EC50 of the first is 2.4-fold lower: 182 nM for the first, 432 nM for the second.

Going from `COc1ccc(CN2CC3(C2)CN(C(=O)CN(C)C)[C@H](CO)c2[nH]c4cc(OC)ccc4c23)cc1` [Compound 97, (S)-2-(dimethylamino)-1-(1′-(hydroxymethyl)-7′-methoxy-1-(4-methoxybenzyl)spiro[azetidine-3,4′-pyrido[3,4-b]indol]-2′(1′H,3′H,9′H)-yl)ethanone] to `COc1ccc2c3c([nH]c2c1)[C@@H](CO)N(C(=O)CN(C)C)CC31CCN(CC2CCCCC2)CC1` [Compound 121, (S)-1-(1-(cyclohexylmethyl)-1′-(hydroxymethyl)-7′-methoxyspiro [piperidine-4,4′-pyrido[3,4-b]indol]-2′(1′H,3′H,9′H)-yl)-2-(dimethylamino) ethanone], the EC50 falls from 1640 nM to 360 nM (4.6-fold).

Going from `COc1ccc2c3c([nH]c2c1)[C@H](CO)N(C(C)=O)CC31CCN(C(=O)Nc2ccc(Cl)cc2)CC1` [Compound 10] to `CCC(=O)N1CC2(CCN(C(=O)Nc3ccccc3F)CC2)c2c([nH]c3cc(OC)ccc23)[C@@H]1CO` [Compound 20, (R)-N-(2-fluorophenyl)-1′-(hydroxymethyl)-7′-methoxy-2′-propionyl-1′,2′,3′,9′-tetrahydrospiro[piperidine-4,4′-pyrido[3,4-b]indole]-1-carboxamide], the EC50 falls from 3380 nM to 620 nM (5.5-fold). The second is the more potent here.

`COc1ccc2c3c(n(C)c2c1)[C@@H](CO)N(Cc1ccccc1OC)CC31CCN(CC2CC2)CC1` [Compound 83, (S)-(1-(cyclopropylmethyl)-7′-methoxy-2′-(2-methoxybenzyl)-9'-methyl-1′,2′,3′,9′-tetrahydrospiro [piperidine-4,4′-pyrido[3,4-b]indol]-1′-yl) methanol] and `CCCN1CCC2(CC1)CN(Cc1ccccc1OC)[C@H](CO)c1c2c2ccc(OC)cc2n1C` [Compound 92, (S)-(7′-methoxy-2′-(2-methoxybenzyl)-9′-methyl-1-propyl-1′,2′,3′,9′-tetrahydrospiro [piperidine-4,4′-pyrido[3,4-b]indol]-1′-yl) methanol] are within 1.5-fold of each other in EC50: 522 nM for the first, 681 nM for the second.

Compared with `COc1ccc2c3c([nH]c2c1)[C@H](CO)N(S(=O)(=O)C(F)(F)F)CC31CCN(C(=O)Nc2ccccc2F)CC1` [Compound 146, (R)-N-(2-fluorophenyl)-1′-(hydroxymethyl)-7′-methoxy-2′-((trifluoromethyl)sulfonyl)-1′,2′,3′,9′-tetrahydrospiro [piperidine-4,4′-pyrido[3,4-b]indole]-1-carboxamide], `COc1ccc2c3c([nH]c2c1)[C@H](CO)N(CCc1ccccc1)CC31CCN(C(=O)Nc2ccccc2F)CC1` [Compound 42, (R)-N-(2-fluorophenyl)-1′-(hydroxymethyl)-7′-methoxy-2′-phenethyl-1′,2′,3′,9′-tetrahydrospiro[piperidine-4,4′-pyrido[3,4-b]indole]-1-carboxamide] is higher in EC50: 269 nM for the first, 1750 to 1900 nM for the second.

`COc1ccc2c3c([nH]c2c1)[C@H](CO)N(C(C)=O)CC31CCN(CCc2ccccc2F)CC1` [Compound 27, (R)-1-(1-(2-fluorophenethyl)-1′-(hydroxymethyl)-7′-methoxyspiro[piperidine-4,4′-pyrido[3,4-b]indol]-2′(1′H,3′H,9′H)-yl) ethanone] and `COc1ccc2c3c([nH]c2c1)[C@@H]1COCC(=O)N1CC31CCN(C(=O)Nc2ccccc2F)CC1` [Compound 47, (R)-N-(2-fluorophenyl)-10-methoxy-4-oxo-1,3,4,6,12,12b-hexahydrospiro[[1,4]oxazino[4′,3′:1 ,2]pyrido[3,4-b]indole-7,4′-piperidine]-1′-carboxamide] cannot be ordered by EC50: 2730 nM for the first, 2230 to 3230 nM for the second.

Compared with `COc1ccc2c3c(n(C)c2c1)[C@@H](CO)N(C(=O)C1CCCC1)CC31CN(C(=O)Nc2cccc(F)c2)C1` [Compound 99, (S)-2′-(cyclopentanecarbonyl)-N-(3-fluorophenyl)-1′-(hydroxymethyl)-7′-methoxy-9′-methyl-1′,2′,3′,9′-tetrahydrospiro [azetidine-3,4′-pyrido[3,4-b]indole]-1-carboxamide], `COc1ccc2c3c(n(C)c2c1)[C@@H](CO)N(C(=O)C1CC1)CC31CN(C(=O)Nc2cccc(F)c2)C1` [Compound 93, (S)-2′-(cyclopropanecarbonyl)-N-(3-fluorophenyl)-1′-(hydroxymethyl)-7′-methoxy-9′-methyl-1′,2′,3′,9′-tetrahydrospiro [azetidine-3,4′-pyrido[3,4-b]indole]-1-carboxamide] is 9.6-fold lower in EC50: 1880 nM for the first, 195 nM for the second. The second is the more potent here.

Compared with `COc1ccc2c3c(n(C)c2c1)[C@H](CO)N(C(=O)Nc1ccc(F)cc1)CC31CCN(C)CC1` [Compound 96, (R)-N-(4-fluorophenyl)-1′-(hydroxymethyl)-7′-methoxy-1,9′-dimethyl-3′,9′-dihydrospiro[piperidine-4,4′-pyrido[3,4-b]indole]-2′(1′H)-carboxamide], `COc1ccc2c3c(n(C)c2c1)[C@@H](CO)N(C(=O)C1CCCC1)CC31CCN(C(=O)Nc2cccc(F)c2)CC1` [Compound 100, (S)-2′-(cyclopentanecarbonyl)-N-(3-fluorophenyl)-1′-(hydroxymethyl)-7′-methoxy-9′-methyl-1′,2′,3′,9′-tetrahydrospiro[piperidine-4,4′-pyrido[3,4-b]indole]-1-carboxamide] is 6.9-fold lower in EC50: 2870 nM for the first, 418 nM for the second.

same assay, conditions: read-out: EC^50 Dd2

First: COc1ccc2c3c([nH]c2c1)[C@H](CO)N(C(=O)Cc1ccccc1)CC31CCN(C(=O)Nc2ccccc2F)CC1 [Compound 12]
Second: COc1ccc2c3c(n(C)c2c1)[C@H](CO)N(Cc1ccc(Cl)cc1)CC31CCN(CC2CC2)CC1 [Compound 88, (R)-(2′-(4-chlorobenzyl)-1-(cyclopropylmethyl)-7′-methoxy-9′-methyl-1′,2′,3′,9′-tetrahydrospiro [piperidine-4,4′-pyrido[3,4-b]indol]-1′-yl)methanol]
The EC50 of the first is lower: 246 to 291 nM for the first, 1170 nM for the second.
